According to the supplement of paper PMC8967900:

What was measured:
Assay in all cases: selective drug sensitivity score (sDSS, relative to normal bone marrow) (sDSS (score)); higher = more potent and effective on the cell line relative to normal bone marrow cells
Details in all cases: 72 h
[1] = test system: MHH-CALL-4
[2] = test system: REH
[3] = test system: KASUMI-2
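Also: ALL cell lines in 384-well plates, five doses spanning 10,000-fold, each plate scaled between vehicle and 100 µmol/L benzalkonium chloride controls, sDSS an adapted area-under-curve metric.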

COC12C(COC(N)=O)C3=C(C(=O)C(C)=C(N)C3=O)N1CC1NC12 (stereo in doubt) [Mitomycin_C] (top concentration 10000 nM)
selective drug sensitivity score [1]: -1.66 | selective drug sensitivity score [2]: 3.74 | selective drug sensitivity score [3]: 4.24

Cc1c(-c2c(-c3ccc(F)o3)sc3ncnc(O[C@H](Cc4ccccc4OCc4ccnn4CC(F)(F)F)C(=O)O)c23)ccc(OCCN2CCN(C)CC2)c1Cl (top concentration 1000 nM)
selective drug sensitivity score [1]: -4.64 | selective drug sensitivity score [2]: -6.84 | selective drug sensitivity score [3]: -4.34

Cc1ncc(Cl)cc1NCc1ccc(C(=O)N[C@@H](CC2CCCC2)C(=O)NC2CC2)s1 (top concentration 5000 nM)
selective drug sensitivity score [1]: -0.94 | selective drug sensitivity score [2]: -0.84 | selective drug sensitivity score [3]: 4.56

CCn1c(-c2nonc2N)nc2c(C#CC(C)(C)O)ncc(OC[C@H]3CCCNC3)c21 (top concentration 10000 nM)
selective drug sensitivity score [1]: 2.98 | selective drug sensitivity score [2]: 12.9 | selective drug sensitivity score [3]: 6.38

CN(c1ncccc1CNc1nc(Nc2ccc3c(c2)CC(=O)N3)ncc1C(F)(F)F)S(C)(=O)=O (top concentration 10000 nM)
selective drug sensitivity score [1]: -0.78 | selective drug sensitivity score [2]: 5.12 | selective drug sensitivity score [3]: -0.38

CNc1ncc2cc(-c3cc(NC(=O)NCCC(C)(C)C)c(F)cc3C)c(C)nc2n1 (top concentration 10000 nM)
selective drug sensitivity score [1]: 8.96 | selective drug sensitivity score [2]: -2.24 | selective drug sensitivity score [3]: 0.36

C[C@@]1(C(=O)Nc2ccc(F)nc2)CCCN1c1nc(Nc2cc(C3CC3)n[nH]2)c2cccn2n1 (top concentration 10000 nM)
selective drug sensitivity score [1]: 4.58 | selective drug sensitivity score [2]: 9.08 | selective drug sensitivity score [3]: -6.52

Cc1nc(Nc2n[nH]c3c2CN(C(=O)N[C@H](CN(C)C)c2ccccc2)C3(C)C)c2sccc2n1 (top concentration 10000 nM)
selective drug sensitivity score [1]: 0.88 | selective drug sensitivity score [2]: -3.72 | selective drug sensitivity score [3]: 3.28

Cn1cc(-c2[nH]c3cc(NC(=O)[C@H](N)C4CCCCC4)cc4c3c2C=NNC4=O)cn1 (top concentration 10000 nM)
selective drug sensitivity score [1]: 0.88 | selective drug sensitivity score [2]: 10.2 | selective drug sensitivity score [3]: -6.12

Cn1cc(-c2ccc(F)c(C(F)(F)F)c2)nc1C1CCN(c2ncnc3[nH]ncc23)CC1 (top concentration 10000 nM)
selective drug sensitivity score [1]: 1.86 | selective drug sensitivity score [2]: -0.14 | selective drug sensitivity score [3]: 13.3

O=C(Nc1ccc2[nH]nc(-c3ccncc3)c2c1)[C@@H]1CCN(CC(=O)N2CCN(c3ccc(-c4ncccn4)cc3)CC2)C1 (top concentration 10000 nM)
selective drug sensitivity score [1]: 3.96 | selective drug sensitivity score [2]: 4.86 | selective drug sensitivity score [3]: 6.16

CC(C)(C)c1cc(NC(=O)Nc2ccc(Oc3ccnc4[nH]c(=O)cnc34)cc2F)n(-c2ccccc2)n1 (top concentration 25000 nM)
selective drug sensitivity score [1]: 0.42 | selective drug sensitivity score [2]: -0.78 | selective drug sensitivity score [3]: -1.38

Nc1ncnc2c1nc(N)n2[C@@H]1O[C@H](CO)[C@@H](O)[C@H]1O [8-amino-adenosine] (top concentration 50000 nM)
selective drug sensitivity score [1]: 2.18 | selective drug sensitivity score [2]: 2.88 | selective drug sensitivity score [3]: 6.08

CC(C)[C@@H](CS(=O)(=O)C(C)C)N1C(=O)[C@@](C)(CC(=O)O)C[C@H](c2cccc(Cl)c2)[C@H]1c1ccc(Cl)cc1 [AMG-232] (top concentration 10000 nM)
selective drug sensitivity score [1]: 10.9 | selective drug sensitivity score [2]: 8.36 | selective drug sensitivity score [3]: 12.3

CC(C)[C@H](C(=O)Nc1ccc(C(=O)NO)cc1)c1ccccc1 [AR-42] (top concentration 10000 nM)
selective drug sensitivity score [1]: 8.08 | selective drug sensitivity score [2]: 5.38 | selective drug sensitivity score [3]: 16

O=C(Nc1c[nH]nc1-c1nc2ccc(CN3CCOCC3)cc2[nH]1)NC1CC1 [AT9283] (top concentration 1000 nM)
selective drug sensitivity score [1]: 4.92 | selective drug sensitivity score [2]: 11.6 | selective drug sensitivity score [3]: 6.22

CCN(CCO)CCCOc1ccc2c(Nc3cc(CC(=O)Nc4cccc(F)c4)[nH]n3)ncnc2c1 [AZD1152-HQPA] (top concentration 1000 nM)
selective drug sensitivity score [1]: 2.04 | selective drug sensitivity score [2]: 17.2 | selective drug sensitivity score [3]: 6.44

Cc1[nH]nc(C(F)(F)F)c1Cc1sc2c(c1C(=O)N1C[C@](C)(O)CO1)c(=O)n(C)c(=O)n2C(C)C [AZD3965] (top concentration 1000 nM)
selective drug sensitivity score [1]: 0 | selective drug sensitivity score [2]: 3.6 | selective drug sensitivity score [3]: 3.8

C[C@@H]1COCCN1c1cc(C2([S@](C)(=N)=O)CC2)nc(-c2cc[nH]c3nccc2-3)n1 [AZD6738] (top concentration 25000 nM)
selective drug sensitivity score [1]: 5.48 | selective drug sensitivity score [2]: 13.1 | selective drug sensitivity score [3]: 1.38

NC1(C(=O)N[C@@H](CCO)c2ccc(Cl)cc2)CCN(c2ncnc3[nH]ccc23)CC1 [AZD-5363] (top concentration 10000 nM)
selective drug sensitivity score [1]: 5.52 | selective drug sensitivity score [2]: 11.3 | selective drug sensitivity score [3]: 7.32

C[C@@H](Nc1cc(F)cc(F)c1)c1cc(C(=O)N(C)C)cc2c(=O)cc(N3CCOCC3)oc12 [AZD-8186] (top concentration 1000 nM)
selective drug sensitivity score [1]: 4.34 | selective drug sensitivity score [2]: 9.54 | selective drug sensitivity score [3]: 7.54

COc1cccc2c1C(=O)c1c(O)c3c(c(O)c1C2=O)C[C@@](O)(/C(CO)=N/NC(=O)CCCCCN1C(=O)C=CC1=O)C[C@@H]3O[C@H]1C[C@H](N)[C@H](O)[C@H](C)O1 [Aldoxorubicin] (top concentration 1000 nM)
selective drug sensitivity score [1]: 8.14 | selective drug sensitivity score [2]: 12.1 | selective drug sensitivity score [3]: 8.54

COc1cc(Nc2ncc3c(n2)-c2ccc(Cl)cc2C(c2c(F)cccc2OC)=NC3)ccc1C(=O)O [Alisertib] (top concentration 10000 nM)
selective drug sensitivity score [1]: -5.62 | selective drug sensitivity score [2]: 14.4 | selective drug sensitivity score [3]: 18.5

Cc1nc(NC(=O)N2CCC[C@H]2C(N)=O)sc1-c1ccnc(C(C)(C)C(F)(F)F)c1 [Alpelisib] (top concentration 2500 nM)
selective drug sensitivity score [1]: -0.22 | selective drug sensitivity score [2]: -0.12 | selective drug sensitivity score [3]: 1.98

CCN(CC)CCNC(=O)c1c(C)[nH]c(/C=C2\C(=O)Nc3ccc(-c4csc(-c5ccccc5)n4)cc32)c1C [Amcasertib] (top concentration 10000 nM)
selective drug sensitivity score [1]: 2.2 | selective drug sensitivity score [2]: 3.6 | selective drug sensitivity score [3]: 0.8

COc1c(C)cnc(Cn2cnc3c(Cl)nc(N)nc32)c1C [BIIB021] (top concentration 10000 nM)
selective drug sensitivity score [1]: 1.28 | selective drug sensitivity score [2]: 5.68 | selective drug sensitivity score [3]: 3.88

O=C(/C=C/c1cccc(S(=O)(=O)Nc2ccccc2)c1)NO [Belinostat] (top concentration 10000 nM)
selective drug sensitivity score [1]: 7.5 | selective drug sensitivity score [2]: 5.1 | selective drug sensitivity score [3]: 17.4

Nc1cc(C(F)(F)F)c(-c2cc(N3CCOCC3)nc(N3CCOCC3)n2)cn1 [Buparlisib] (top concentration 10000 nM)
selective drug sensitivity score [1]: 2.78 | selective drug sensitivity score [2]: 5.18 | selective drug sensitivity score [3]: 2.08

CCS(=O)(=O)N1CCN(c2ccc(Nc3ncc(C(N)=O)c(NC4CC4)n3)cc2)CC1 [Cerdulatinib] (top concentration 10000 nM)
selective drug sensitivity score [1]: -5.46 | selective drug sensitivity score [2]: -5.16 | selective drug sensitivity score [3]: -11.9

CC(C)[C@H]1C(=O)N[C@@H](CCCNC(=N)N)C(=O)NCC(=O)N[C@@H](CC(=O)O)C(=O)N[C@H](Cc2ccccc2)C(=O)N1C [Cilengitide] (top concentration 10000 nM)
selective drug sensitivity score [1]: 5.5 | selective drug sensitivity score [2]: 0 | selective drug sensitivity score [3]: 0

CC(C)(C)c1nc(-c2cccc(NS(=O)(=O)c3c(F)cccc3F)c2F)c(-c2ccnc(N)n2)s1 [Dabrafenib] (top concentration 2500 nM)
selective drug sensitivity score [1]: 3.08 | selective drug sensitivity score [2]: -1.52 | selective drug sensitivity score [3]: -1.52

C[C@H]1O[C@@H](O[C@H]2[C@@H](O)C[C@H](O[C@H]3[C@@H](O)C[C@H](O[C@H]4CC[C@@]5(C)[C@H](CC[C@@H]6[C@@H]5C[C@@H](O)[C@]5(C)[C@@H](C7=CC(=O)OC7)CC[C@]65O)C4)O[C@@H]3C)O[C@@H]2C)C[C@H](O)[C@@H]1O [Digoxin] (top concentration 1000 nM)
selective drug sensitivity score [1]: 5.6 | selective drug sensitivity score [2]: 6.3 | selective drug sensitivity score [3]: 5.9

C[C@H](Nc1ncnc2nc[nH]c12)c1cc2cccc(Cl)c2c(=O)n1-c1ccccc1 [Duvelisib] (top concentration 500 nM)
selective drug sensitivity score [1]: -0.34 | selective drug sensitivity score [2]: -0.94 | selective drug sensitivity score [3]: 9.86

NC(=O)/C(=C/n1cnc(-c2cc(C(F)(F)F)cc(C(F)(F)F)c2)n1)c1cncnc1 [Eltanexor] (top concentration 10000 nM)
selective drug sensitivity score [1]: 6.76 | selective drug sensitivity score [2]: 7.06 | selective drug sensitivity score [3]: 16.8

COC(=O)N[C@@H](C)CNc1nccc(-c2cn(C(C)C)nc2-c2cc(Cl)cc(NS(C)(=O)=O)c2F)n1 [Encorafenib] (top concentration 1000 nM)
selective drug sensitivity score [1]: 0 | selective drug sensitivity score [2]: 1.6 | selective drug sensitivity score [3]: 0
